Experimental data published in the Kinase Knowledgebase extract (Sharma et al. 2016).

target: MAPK14 (human) (UniProt Q16539); experiment: Assessment of MAPK14 Kinase Activity
Sequence (Q16539 whole entry, looked up): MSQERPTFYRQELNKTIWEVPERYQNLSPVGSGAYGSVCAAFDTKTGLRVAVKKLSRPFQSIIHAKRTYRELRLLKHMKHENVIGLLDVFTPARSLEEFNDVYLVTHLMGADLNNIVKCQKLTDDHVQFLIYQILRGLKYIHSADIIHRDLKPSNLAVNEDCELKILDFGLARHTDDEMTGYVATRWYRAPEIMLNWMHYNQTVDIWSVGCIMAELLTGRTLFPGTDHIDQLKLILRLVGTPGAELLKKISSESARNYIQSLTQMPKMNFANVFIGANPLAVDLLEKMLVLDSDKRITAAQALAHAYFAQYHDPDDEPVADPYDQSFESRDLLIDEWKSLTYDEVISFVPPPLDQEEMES

| Structure (SMILES) | IC50 [nM] |
| --- | --- |
| Cc1ccc(-c2ccc(N3CCOCC3)nc2)cc1NC(=O)Nc1sc(C(C)(C)C)cc1C(=O)N1CCNC(=O)C1(C)C | < 100 |
| Cc1ccc(NC(=O)Nc2sc(C(C)(C)C)cc2C(=O)N2CCNC(=O)C2(C)C)cc1C#CCN1CCOCC1 | < 100 |
| CC(C)(C)c1cc(C(=O)N2CCNC(=O)C2(C)C)c(NC(=O)Nc2ccc(F)c(-c3ccc(OCCN4CCOCC4)nc3)c2)s1 | < 100 |
| Cc1ccc(NC(=O)Nc2sc(C(C)(C)C)cc2C(=O)N2CCNC(=O)C2(C)C)cc1C#CCOCCN1CCOCC1 | < 100 |
| Cc1ccc(NC(=O)Nc2cc(C(C)(C)C)sc2C(=O)N2CCN(C)C(=O)C2(C)C)cc1-c1ccc(N2CCOCC2)nc1 | < 100 |
| Cc1ccc(NC(=O)Nc2sc(C(C)(C)C)cc2C(=O)N2CCNC(=O)C2(C)C)cc1-c1ccccn1 | < 100 |
| COc1ccc(-c2cc(NC(=O)Nc3cc(C(C)(C)C)sc3C(=O)N3CCNC(=O)C3(C)C)ccc2C)cn1 | < 100 |
| Cc1ccc(NC(=O)Nc2sc(C(C)(C)C)cc2C(=O)N2CCN(C)C(=O)C2(C)C)cc1-c1ccc(C[N+]2([O-])CCOCC2)[n+]([O-])c1 | 100 to 1000 |
| Cc1ccc(NC(=O)Nc2sc3c(c2C(=O)N2CCN(C)C(=O)C2(C)C)CCOC3)cc1-c1ccc(CN2CCOCC2)nc1 | 100 to 1000 |
| CCc1ccc(-c2cc(NC(=O)Nc3sc(C(C)(C)C)cc3C(=O)N3CCN(C)C(=O)C3(C)C)ccc2C)nc1 | < 100 |
| Cc1ccc(NC(=O)Nc2sc(C(C)(C)C)cc2C(=O)N2CCNC(=O)C2(C)C)cc1C#C[Si](C)(C)C | < 100 |
| Cc1ccc(NC(=O)Nc2sc(C(C)(C)C)cc2C(=O)N2CCN(C)C(=O)C2(C)C)cc1-c1ccc(CN2CCOCC2)cn1 | < 100 |
| Cc1ccc(NC(=O)Nc2sc(C(C)(C)C)cc2C(=O)N2CCN(C)C(=O)C2(C)C)cc1-c1ccc(C(=O)N2CCOCC2)nc1 | < 100 |
| Cc1ccc(NC(=O)Nc2sc(C(C)(C)C)cc2C(=O)N2CCNC(=O)C2(C)C)cc1-c1ccc(OC2CCOCC2)nc1 | < 100 |
| C#Cc1cc(NC(=O)Nc2sc(C(C)(C)C)cc2C(=O)N2CCNC(=O)C2(C)C)ccc1C | < 100 |
| CN(C)CCOc1ccc(-c2cccc(NC(=O)Nc3sc(C(C)(C)C)cc3C(=O)N3CCNC(=O)C3(C)C)c2)cn1 | < 100 |
| COc1ccc(-c2cc(NC(=O)Nc3cc(C(C)(C)C)sc3C(=O)N3CCN(CCO)C(=O)C3(C)C)ccc2C)cn1 | < 100 |
| CC(C)(C)c1cc(C(=O)N2CCNC(=O)C2(C)C)c(NC(=O)Nc2cccc(-c3cccnc3)c2)s1 | < 100 |
| Cc1ccc(NC(=O)Nc2cc(C(C)(C)C)oc2C(=O)N2CCN(C)C(=O)C2(C)C)cc1-c1ccc(CN2CCOCC2)cn1 | < 100 |
| Cc1ccc(NC(=O)Nc2sc(C(C)(C)C)cc2C(=O)N2CCNC(=O)C2(C)C)cc1-c1ccc(OCCCN2CCN(C)CC2)nc1 | < 100 |
| Cc1ccc(NC(=O)Nc2cn(C(C)(C)C)nc2C(=O)N2CCNC(=O)C2(C)C)cc1-c1ccc(N2CCOCC2)nc1 | < 100 |
| CCNC(=O)c1ccc(-c2cc(NC(=O)Nc3cn(C(C)(C)C)nc3C(=O)N3CCNC(=O)C3(C)C)ccc2C)cn1 | < 100 |
| CCNC(=O)c1ccc(-c2cc(NC(=O)Nc3cn(C(C)(C)C)nc3C(=O)N3CCN(C)C(=O)C3(C)C)ccc2C)cn1 | < 100 |
| Cc1ccc(NC(=O)Nc2sc(C(C)(C)C)cc2C(=O)N2CCNC(=O)C2(C)C)cc1-c1ccc(N2CCOCC2)cn1 | < 100 |
| Cc1ccc(NC(=O)Nc2sc(C(C)(C)C)cc2C(=O)N2CCNC(=O)C2(C)C)cc1-c1ccc(C(=O)N(C)C)nc1 | < 100 |

| Structure (SMILES) | IC50 [nM] |
| --- | --- |
| Cc1ccc(NC(=O)Nc2sc(C(C)(C)C)cc2C(=O)N2CCNC(=O)C2(C)C)cc1-c1ccc(N2CCN(C)CC2)cn1 | < 100 |
| Cc1nnc(-c2ccc(-c3cc(NC(=O)Nc4sc(C(C)(C)C)nc4C(=O)N4CCN(C)C(=O)C4(C)C)ccc3C)cn2)o1 | < 100 |
| CCc1ccc(-c2cc(NC(=O)Nc3sc(C(C)(C)C)cc3C(=O)N3CCN(C)C(=O)C3(C)C)cc(F)c2C)cn1 | < 100 |
| Cc1ccc(NC(=O)Nc2sc(C(C)(C)C)cc2C(=O)N2CCNC(=O)C2(C)C)cc1-c1ccc(OCCN2CCOCC2)nc1 | < 100 |
| Cc1ccc(NC(=O)Nc2cn(C(C)(C)C)nc2C(=O)N2CCN(C3CCN(C)C3)C(=O)C2(C)C)cc1-c1cccnc1 (centres undefined) | 100 to 1000 |
| Cc1ccc(NC(=O)Nc2cc(C(C)(C)C)sc2C(=O)N2CCN(C)C(=O)C2)cc1-c1ccc(CN2CCOCC2)nc1 | < 100 |
| Cc1ccc(NC(=O)Nc2sc(C(C)(C)C)nc2C(=O)N2CCN(C)C(=O)C2(C)C)cc1-c1ccc(CN2CCOCC2)cn1 | < 100 |
| Cc1ccc(NC(=O)Nc2sc(C(C)(C)C)cc2C(=O)N2CCNC(=O)C2(C)C)cc1C#Cc1ccccn1 | < 100 |
| Cc1ccc(NC(=O)Nc2sc(C(C)(C)C)cc2C(=O)N2CCNC(=O)C2(C)C)cc1-c1ccc(CN2CCOCC2)cn1 | < 100 |
| CC(C)(C)c1cc(C(=O)N2CCNC(=O)C2(C)C)c(NC(=O)Nc2cccc(-c3ccc(OCCN4CCOCC4)nc3)c2)s1 | < 100 |
| CCNC(=O)c1ccc(-c2cc(NC(=O)Nc3cc(C(C)(C)C)oc3C(=O)N3CCN(C)C(=O)C3(C)C)ccc2C)cn1 | < 100 |
| CCc1ccc(-c2cc(NC(=O)Nc3cn(C(C)(C)C)nc3C(=O)N3CCN(C)C(=O)C3(C)C)cc(F)c2C)cn1 | < 100 |
| Cc1ccc(NC(=O)Nc2sc(C(C)(C)C)cc2C(=O)N2CCNC(=O)C2(C)C)cc1C#CCN1CCN(C)CC1 | < 100 |
| Cc1ccc(NC(=O)Nc2sc(C(C)(C)C)cc2C(=O)N2CCNC(=O)CC2)cc1-c1cccnc1 | < 100 |
| Cc1ccc(NC(=O)Nc2cn(C(C)(C)C)nc2C(=O)N2CCNC(=O)C2(C)C)cc1-c1ccc(CN2CCOCC2)nc1 | < 100 |
| Cc1cc(NC(=O)Nc2cc(C(C)(C)C)sc2C(=O)N2CCNC(=O)C2(C)C)cc(-c2ccc(N3CCOCC3)cn2)c1 | < 100 |
| Cc1ccc(-c2ccc(N3CCOCC3)cn2)cc1NC(=O)Nc1cc(C(C)(C)C)sc1C(=O)N1CCNC(=O)C1(C)C | < 100 |
| Cc1ccc(NC(=O)Nc2sc(C(C)(C)C)cc2C(=O)N2CCNS(=O)(=O)CC2)cc1-c1ccc(CN2CCOCC2)nc1 | < 100 |
| CCN1CCN(C(=O)c2sc(C(C)(C)C)cc2NC(=O)Nc2ccc(C)c(-c3ccc(CN4CCOCC4)nc3)c2)C(C)(C)C1=O | < 100 |
| Cc1ccc(NC(=O)Nc2sc(C(C)(C)C)cc2C(=O)N2CCN(C)C(=O)C2(C)C)cc1-c1ccc(CN2CCOCC2)nc1 | < 100 |
| CCc1ccc(-c2cc(NC(=O)Nc3sc(C(C)(C)C)cc3C(=O)N3CCNC(=O)C3(C)C)ccc2C)cn1 | < 100 |
| Cc1ccc(NC(=O)Nc2sc(C(C)(C)C)cc2C(=O)N2CCNC(=O)C2(C)C)cc1-c1cc[n+]([O-])cc1 | < 100 |
| Cc1ccc(-c2cc(NC(=O)Nc3sc(C(C)(C)C)cc3C(=O)N3CCN(C)C(=O)C3(C)C)ccc2C)cn1 | < 100 |
| C#Cc1ccc(-c2cc(NC(=O)Nc3sc(C(C)(C)C)cc3C(=O)N3CCNC(=O)C3(C)C)ccc2C)cn1 | < 100 |
| Cc1ccc(NC(=O)Nc2cc(C(C)(C)C)sc2C(=O)N2CCN(C(C)C)C(=O)C2(C)C)cc1-c1ccc(CN2CCOCC2)nc1 | < 100 |

| Structure (SMILES) | IC50 [nM] |
| --- | --- |
| Cc1ccc(NC(=O)Nc2sc(C(C)(C)C)cc2C(=O)N2CCNC(=O)C2(C)C)cc1-c1ccc(OCCCN2CCOCC2)nc1 | < 100 |
| Cc1ccc(NC(=O)Nc2sc(C(C)(C)C)cc2C(=O)N2CCNC(=O)C2(C)C)cc1-c1ccc(NCC(O)CO)nc1 (centres undefined) | < 100 |
| CC(C)(C)c1cc(C(=O)N2CCNC(=O)C2(C)C)c(NC(=O)Nc2cccc(-c3ccnc(F)c3)c2)s1 | < 100 |
| Cc1ccc(NC(=O)Nc2cn(C(C)(C)C)nc2C(=O)N2CCN(C)C(=O)C2(C)C)cc1-c1ccc(CN2CCOCC2)cn1 | < 100 |
| Cc1ccc(NC(=O)Nc2cn(C(C)(C)C)nc2C(=O)N2CCNC(=O)C2(C)C)cc1-c1ccc(CN2CCOCC2)cn1 | < 100 |
| CCNC(=O)c1ccc(-c2cc(NC(=O)Nc3sc(C(C)(C)C)nc3C(=O)N3CCN(C)C(=O)C3(C)C)ccc2C)cn1 | < 100 |
| Cc1ccc(NC(=O)Nc2sc(C(C)(C)C)cc2C(=O)N2CCNC(=O)C2(C)C)cc1-c1ccc(CN)nc1 | < 100 |
| CCc1ccc(-c2cc(NC(=O)Nc3cn(C(C)(C)C)nc3C(=O)N3CCN(C)C(=O)C3(C)C)ccc2C)cn1 | < 100 |
| Cc1ccc(NC(=O)Nc2sc(C(C)(C)C)cc2C(=O)N2CCC(=O)N(C)CC2)cc1-c1ccc(N2CCOCC2)cn1 | < 100 |
| COc1ccc(-c2cc(NC(=O)Nc3sc(C(C)(C)C)cc3C(=O)N3CCN(C)C(=O)C3(C)C)c(F)cc2C)cn1 | < 100 |
| Cc1ccc(NC(=O)Nc2sc(C(C)(C)C)cc2C(=O)N2CCNC(=O)C2(C)C)cc1-c1ncccn1 | < 100 |
| CC(C)(C)c1cc(C(=O)N2CCNC(=O)C2(C)C)c(NC(=O)Nc2cccc(-c3ccc(OCCCN4CCOCC4)nc3)c2)s1 | < 100 |
| CON(C)C(=O)c1ccc(-c2cc(NC(=O)Nc3sc(C(C)(C)C)cc3C(=O)N3CCN(C)C(=O)C3(C)C)ccc2C)cn1 | < 100 |
| Cc1nnc(CN2CCN(C(=O)c3cc(C(C)(C)C)sc3NC(=O)Nc3ccc(C)c(-c4ccncc4)c3)C(C)(C)C2=O)o1 | < 100 |
| Cc1ccc(NC(=O)Nc2sc(C(C)(C)C)cc2C(=O)N2CCN(C)C(=O)C2(C)C)cc1-c1ccc(C(C)(C)O)nc1 | < 100 |
| Cc1ccc(NC(=O)Nc2cn(C(C)(C)C)nc2C(=O)N2CCN(C)C(=O)C2(C)C)cc1-c1ccc(C(C)C)nc1 | < 100 |
| Cc1ccc(NC(=O)Nc2sc(C(C)(C)C)cc2C(=O)N2CCN(C)C(=O)C2(C)C)cc1-c1ccc(C(C)O)nc1 (centres undefined) | < 100 |
| CCNC(=O)c1ccc(-c2cc(NC(=O)Nc3cc(C(C)(C)C)sc3C(=O)N3CCNC(=O)C3(C)C)ccc2C)cn1 | < 100 |
| Cc1ccc(NC(=O)Nc2sc(C(C)(C)C)cc2C(=O)N2CCN(C)C(=O)C2(C)C)cc1-c1ccc(N2CCN(C)CC2)nc1 | < 100 |
| Cc1nnc(-c2ccc(-c3cc(NC(=O)Nc4cc(C(C)(C)C)sc4C(=O)N4CCN(C)C(=O)C4(C)C)ccc3C)cn2)o1 | < 100 |
| CC(C)(C)c1cc(C(=O)N2CCNC(=O)C2(C)C)c(NC(=O)Nc2cccc(-c3ccncc3)c2)s1 | < 100 |
| Cc1ccc(NC(=O)Nc2cn(C(C)(C)C)nc2C(=O)N2CCN(C)C(=O)C2(C)C)cc1-c1ccc(CN2CCOCC2)nc1 | < 100 |
| Cc1ccc(NC(=O)Nc2sc(C(C)(C)C)cc2C(=O)N2CCNC(=O)C2(C)C)cc1-c1ccc(N2CCN(C)CC2)nc1 | < 100 |
| Cc1ccc(NC(=O)Nc2sc(C(C)(C)C)cc2C(=O)N2CCN(C)C(=O)C2(C)C)cc1-c1ccc(-n2ccnc2)nc1 | < 100 |
